Experimental data: paper PMC8326492, “Novel Mannich bases with strong carbonic anhydrases and acetylcholinesterase inhibition effects: 3-(aminomethyl)-6-{3-[4-(trifluoromethyl)phenyl]acryloyl}-2(3H)-benzoxazolones” (Turkish Journal of Chemistry, 2021)

Assays:
AChE = biological target: T1, AChE (Electrophorus electricus, UniProt O42275); assay: biochemical; details: electric eel AChE; mean from three different assays
T1 construct: AChE enzyme, obtained from electric eel; from tissue; host or cells: electric eel
Experimental: Acetylcholinesterase enzyme inhibition assay was performed according to our previous studies. […] The substrates of acetylthiocholine iodide (AChI) and 5,5’-dithiobis(2-nitro-benzoic acid) (DTNB) was used for cholinergic enzymatic reaction. For this purpose, 1 mL of Tris / HCl buffer (1.0 M, pH 8.0) and 10 μL of different concentrations of sample solution were dissolved in deionized water. Then, an aliquot of (50 μL) AChE enzyme was transferred and incubated at room temperature for 10 min. After the incubation period, an aliquot of DTNB (0.5 mM, 50 μL) was added. Then, the enzymatic reaction was started by adding 50 μL of AChI (10 mM).

hCA II = hCA II (Homo sapiens, UniProt P00918); assay: Carbonic anhydrase inhibition assay (esterase, p-nitrophenylacetate), hCA II
Experimental: (§1) CA inhibition assay was recorded according to previous studies [4,10,27,49,60–64]. The hCA I and II isoenzymes were purified from human red blood cells by sepharose-4B-L-tyrosine-sulfanilamide affinity chromatography [65], which was used as an affinity matrix for selective retention of both hCA isoenzymes [27,66]. […] After sepharose-4B-L-tyrosine-sulfanilamide affinity chromatography, the enzyme quantity was spectrophotometrically measured at 280 nm [68]. […] Purity controls of both CA isoenzymes were performed according to the Laemmli procedure as described in previous studies. Both isoenzymes were visualized by two different acrylamide concentrations (10% and 3% acrylamide), containing 0.1% sodium dodecyl sulfate (SDS) [69,70].

hCA I = hCA I (Homo sapiens, UniProt P00915); assay: biochemical
Sequence of hCA I (P00915 whole entry): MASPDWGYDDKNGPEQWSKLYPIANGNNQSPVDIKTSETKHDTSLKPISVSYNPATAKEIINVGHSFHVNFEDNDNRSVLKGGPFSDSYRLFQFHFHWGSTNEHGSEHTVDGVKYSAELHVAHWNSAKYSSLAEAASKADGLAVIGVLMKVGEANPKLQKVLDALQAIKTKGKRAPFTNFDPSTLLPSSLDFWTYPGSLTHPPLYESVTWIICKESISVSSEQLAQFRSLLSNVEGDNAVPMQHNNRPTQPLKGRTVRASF
Experimental: as §1

T1 sequence (O42275 24-633): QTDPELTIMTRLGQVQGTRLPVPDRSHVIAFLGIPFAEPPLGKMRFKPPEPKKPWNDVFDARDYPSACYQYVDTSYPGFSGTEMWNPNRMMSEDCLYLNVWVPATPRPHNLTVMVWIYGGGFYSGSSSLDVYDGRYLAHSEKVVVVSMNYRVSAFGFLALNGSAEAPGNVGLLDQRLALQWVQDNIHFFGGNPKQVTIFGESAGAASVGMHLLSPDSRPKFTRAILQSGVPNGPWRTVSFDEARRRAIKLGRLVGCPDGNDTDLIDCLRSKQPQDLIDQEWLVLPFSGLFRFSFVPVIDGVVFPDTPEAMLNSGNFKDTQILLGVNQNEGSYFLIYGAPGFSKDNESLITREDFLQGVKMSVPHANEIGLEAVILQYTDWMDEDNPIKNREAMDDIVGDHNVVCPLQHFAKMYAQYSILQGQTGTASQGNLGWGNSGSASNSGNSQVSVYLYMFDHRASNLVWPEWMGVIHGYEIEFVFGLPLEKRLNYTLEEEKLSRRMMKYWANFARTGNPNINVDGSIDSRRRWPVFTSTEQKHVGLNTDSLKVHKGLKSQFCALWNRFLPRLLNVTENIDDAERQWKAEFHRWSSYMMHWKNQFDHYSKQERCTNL

SMILES	Ki (AChE)	Ki (hCA II)	Ki (hCA I)
O=C(/C=C/c1ccc(C(F)(F)F)cc1)c1ccc2[nH]c(=O)oc2c1 [Compound 1, (E )-6-{3-[4-(trifluoromethyl)phenyl]acryloyl}benzoxazol-2(3H )-one]	159 ± 33.5 nM	33.6 ± 4.5 nM	154 ± 9.3 nM
CN(C)Cn1c(=O)oc2cc(C(=O)C=Cc3ccc(C(F)(F)F)cc3)ccc21 [Compound 1a, 3-[(Dimethylamino)methyl]-6-{3-[4-(trifluoromethyl)phenyl]acryloyl}benzoxazol-2(3H)-one]	130 ± 17.6 nM	23.3 ± 2 nM	31.4 ± 5.3 nM
CCN(CC)Cn1c(=O)oc2cc(C(=O)C=Cc3ccc(C(F)(F)F)cc3)ccc21 [Compound 1b, 3-[(Diethylamino)methyl]-6-{3-[4-(trifluoromethyl)phenyl]acryloyl}benzoxazol-2(3H)-one]	142 ± 22.1 nM	37.6 ± 4.3 nM	36.8 ± 7.7 nM
CCCN(CCC)Cn1c(=O)oc2cc(C(=O)C=Cc3ccc(C(F)(F)F)cc3)ccc21 [Compound 1c, 3-[(Dipropylamino)methyl]-6-{3-[4-(trifluoromethyl)phenyl]acryloyl}benzoxazol-2(3H)-one]	116 ± 32 nM	24.6 ± 4.7 nM	22.3 ± 2.3 nM
O=C(C=Cc1ccc(C(F)(F)F)cc1)c1ccc2c(c1)oc(=O)n2CN1CCCC1 [Compound 1d, 3-(Pyrrolidin-1-ylmethyl)-6-{3-[4-(trifluoromethyl)phenyl]acryloyl}benzoxazol-2(3H)-one]	97.6 ± 14.4 nM	19 ± 3 nM	12.3 ± 1.2 nM
O=C(C=Cc1ccc(C(F)(F)F)cc1)c1ccc2c(c1)oc(=O)n2CN1CCCCC1 [Compound 1e, 3-(Piperidin-1-ylmethyl)-6-(3-(4-(trifluoromethyl)phenyl)acryloyl)benzoxazol-2(3H)-one]	84 ± 19.2 nM	18.1 ± 3.5 nM	27.6 ± 2.9 nM
O=C(C=Cc1ccc(C(F)(F)F)cc1)c1ccc2c(c1)oc(=O)n2CN1CCOCC1 [Compound 1f, 3-(Morpholinomethyl)-6-{3-[4-(trifluoromethyl)phenyl]acryloyl}benzoxazol-2(3H)-one]	35.2 ± 2 nM	41 ± 5.5 nM	20.4 ± 1.7 nM
CN1CCN(Cn2c(=O)oc3cc(C(=O)C=Cc4ccc(C(F)(F)F)cc4)ccc32)CC1 [Compound 1g, 3-[(4-Methylpiperazin-1-yl)methyl]-6-{3-[4-(trifluoromethyl)phenyl]acryloyl} benzoxazol-2(3H)-one]	48.5 ± 10.2 nM	8.6 ± 1.9 nM	53 ± 1.8 nM
